Measurements from patent US6413982B1, “4-substituted quinoline derivatives” (Neurogen Corporation, priority 1999, dated 2002).

Target: T1, NK-3 receptor (Homo sapiens, UniProt P29371)
T1 construct: expressed in transfected cells; total cellular membranes
T1 sequence (P29371 1-465): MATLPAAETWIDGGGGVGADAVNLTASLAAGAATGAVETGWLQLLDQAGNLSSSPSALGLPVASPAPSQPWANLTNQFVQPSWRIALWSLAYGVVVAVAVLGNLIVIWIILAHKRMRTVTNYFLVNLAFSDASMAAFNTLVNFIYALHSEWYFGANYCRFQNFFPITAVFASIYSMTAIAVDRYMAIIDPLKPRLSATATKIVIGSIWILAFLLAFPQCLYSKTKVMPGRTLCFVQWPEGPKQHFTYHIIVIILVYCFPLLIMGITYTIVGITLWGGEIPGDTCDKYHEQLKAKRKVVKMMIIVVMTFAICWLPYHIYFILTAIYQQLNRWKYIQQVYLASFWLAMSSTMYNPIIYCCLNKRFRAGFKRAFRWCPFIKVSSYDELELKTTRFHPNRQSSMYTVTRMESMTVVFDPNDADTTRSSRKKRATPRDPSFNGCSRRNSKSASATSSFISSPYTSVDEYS
Experiment: Assay for NK-3 receptor binding activity
Conditions: displacement of 125I-methylPhe7-neurokinin B, membranes of CHO cells expressing cloned human NK-3 receptor, 2 hours at 4° C.
Protocol: The following assay is a standard assay for NK-3 receptor binding activity. Assays are performed as described in Krause et al (Proc. Natl. Acad. Sci. USA 94: 310-315, 1997). The NK-3 receptor complementary DNA is cloned from human hypothalamic RNA using standard procedures. The receptor cDNA is inserted into the expression vector pM^2 to transfect the mammalian Chinese hamster ovary cell line, and a stably expressing clonal cell line is isolated, characterized and used for the current experiments. Cells are grown in minimal essential medium alpha containing 10% fetal bovine serum and 250 μg/ml G418. Cells are liberated from cell culture plates with No-zyme (PBS base, JRH Biosciences), and harvested by low speed centrifugation. […]
Receptor binding assays contain a total volume of 200 μl containing 50 μg membrane protein, 0.05-0.15 nM 125I-methylPhe7-neurokinin B, drug or blocker in TBS containing 1.0 mg/ml bovine serum albumen, 0.2 mg/ml bacitracin, 20 μg/ml leupeptin and 20 μg/ml chymostatin. […] After filtration of the incubation mixture, filters are rinsed 4 times with ice-cold TBS containing 0.01% sodium dodecyl sulfate and radioactivity is quantitated in a β-plate scintillation counter. […] Data are collected in duplicate determinations, averaged, and the percent inhibition of total specific binding is calculated. […]

## CCC1(c2ccccc2)CN=C(c2c(OC)c(-c3ccccc3)nc3ccccc23)N1 (centres unmarked) [Example 1, 5-Ethyl-5-phenyl-2-(3-methoxy-2-phenylquinolin-4-yl)-imidazoline]
  IC50: 19 nM

## CCC1(c2ccccc2)CN=C(c2c(C)c(-c3ccccc3)nc3ccccc23)N1 (centres unmarked) [Example 2]
  IC50: 0.3 nM
